Earlier results in patent US5753436A, “Chemiluminescent energy transfer assays” (Tropix, Inc., priority 1995, dated 1998).

System: alkaline phosphatase

For O=P(O)(O)Oc1ccc2nc(-c3nc4ccccc4s3)sc2c1 [AttoPhos], the Km is listed as 30 µM and the turnover number (2.40M DEA (diethanolamine) pH 9.0, 0.23 mM MgCl2, 0.005% NaN by weight) is listed as 85,400 molecules of AttoPhos per minu.
